Data: the supplement of paper PMC13380429
Structures can show the parent of a compound that is named as a salt.

How the values were obtained:
Settings in all cases: 72 h
Caco-2 [1] = assay: cell viability relative to DMSO; higher = less toxic
Calu-3 [2] = assay: as above
HepG2 [3] = assay: as above
U2OS [4] = assay: as above
Vero E6 [5] = assay: as above
Calu-3 [6] = assay: relative viability EC50 (midpoint between 100% and the lowest measured viability); higher = less toxic
U2OS [7] = assay: as above
Vero E6 [8] = assay: as above
Caco-2 [9] = assay: drug sensitivity score (DSS) for viability; higher = more toxic; extreme values may be limits of the assay
Calu-3 [10] = assay: as above
HepG2 [11] = assay: as above
U2OS [12] = assay: as above
Vero E6 [13] = assay: as above
Caco-2 [14] = assay: relative viability EC50 (midpoint between 100% and the lowest measured viability); higher = less toxic

| Structure (SMILES) | cell viability (Caco-2 [1]; 1 nM) [%] | cell viability (Caco-2 [1]; 10 nM) [%] | cell viability (Caco-2 [1]; 100 nM) [%] | cell viability (Caco-2 [1]; 1000 nM) [%] | cell viability (Caco-2 [1]; 10000 nM) [%] | cell viability (Calu-3 [2]; 1 nM) [%] | cell viability (Calu-3 [2]; 10 nM) [%] | cell viability (Calu-3 [2]; 100 nM) [%] | cell viability (Calu-3 [2]; 1000 nM) [%] | cell viability (Calu-3 [2]; 10000 nM) [%] | cell viability (HepG2 [3]; 1 nM) [%] | cell viability (HepG2 [3]; 10 nM) [%] | cell viability (HepG2 [3]; 100 nM) [%] | cell viability (HepG2 [3]; 1000 nM) [%] | cell viability (HepG2 [3]; 10000 nM) [%] | cell viability (U2OS [4]; 1 nM) [%] | cell viability (U2OS [4]; 10 nM) [%] | cell viability (U2OS [4]; 100 nM) [%] | cell viability (U2OS [4]; 1000 nM) [%] | cell viability (U2OS [4]; 10000 nM) [%] | cell viability (Vero E6 [5]; 1 nM) [%] | cell viability (Vero E6 [5]; 10 nM) [%] | cell viability (Vero E6 [5]; 100 nM) [%] | cell viability (Vero E6 [5]; 1000 nM) [%] | cell viability (Vero E6 [5]; 10000 nM) [%] | relative viability EC50 (Calu-3 [6]) [µM] | relative viability EC50 (U2OS [7]) [µM] | relative viability EC50 (Vero E6 [8]) [µM] | drug sensitivity score (Caco-2 [9]) | drug sensitivity score (Calu-3 [10]) | drug sensitivity score (HepG2 [11]) | drug sensitivity score (U2OS [12]) | drug sensitivity score (Vero E6 [13]) | relative viability EC50 (Caco-2 [14]) [µM] |
| --- | --- | --- | --- | --- | --- | --- | --- | --- | --- | --- | --- | --- | --- | --- | --- | --- | --- | --- | --- | --- | --- | --- | --- | --- | --- | --- | --- | --- | --- | --- | --- | --- | --- | --- |
| CN1CCN(CCOc2cc(OC3CCOCC3)c3c(Nc4c(Cl)ccc5c4OCO5)ncnc3c2)CC1 [saracatinib] | 107 | 102 | 102 | 84.4 | 63.8 | 87.7 | 116 | 95 | 42.3 | 9.6 | 100 | 101 | 107 | 80.2 | 72.1 | 98.6 | 102 | 88.8 | 78.9 | 47.5 | 97.5 | 97.1 | 102 | 75.2 | 21 | 0.7 | 1.09 | 1.37 | 3.8 | 12 | 3.3 | 5.2 | 8 | – |
| OC[C@H]1O[C@@H](O[C@@H]2[C@@H](CO)OC(O)(CO)[C@H]2O)[C@H](O)[C@@H](O)[C@H]1O (mixture of isomers) [lactulose] | 100 | 98.2 | 101 | 104 | 106 | 107 | 112 | 99.1 | 104 | 101 | – | – | – | – | – | – | – | – | – | – | 94.1 | 97.7 | 89.1 | 94.6 | 110 | > 10 | – | > 10 | 0 | 0 | – | – | 0 | > 10 |
| CC(=O)O[C@H]1CC[C@@]2(C)C(=CC[C@@H]3[C@@H]2CC[C@]2(C)C(=O)CC[C@@H]32)C1 [prasterone-acetate] | – | – | – | – | – | – | – | – | – | – | – | – | – | – | – | – | – | – | – | – | – | – | – | – | – | – | – | – | – | 0 | 0 | 0 | 0 | – |
| CCC(CC)C(c1ccc(Nc2nc3ccccc3s2)cc1)n1cncn1 (stereo unspecified) [talarozole] | 94.1 | 104 | 96 | 103 | 67.8 | 100 | 104 | 103 | 109 | 104 | 92.3 | 92.5 | 104 | 102 | 63.7 | 104 | 104 | 101 | 102 | 93.3 | 108 | 101 | 99.3 | 99.1 | 105 | > 10 | > 10 | > 10 | 1.2 | 0 | 1.6 | 0 | 0 | – |
| CNC1CC(N)C(O)C(OC2OC(CO)C(O)C3OC4(OC(C(N)CO)C(O)C(O)C4O)OC23)C1O (stereo unspecified) [Hygromycin B] | 97.2 | 105 | 107 | 108 | 95.9 | 95.7 | 93.5 | 92.9 | 97.5 | 89.8 | – | – | – | – | – | 104 | 97.8 | 99 | 103 | 93.9 | 95.9 | 93.4 | 95.4 | 91.5 | 104 | > 10 | > 10 | > 10 | 0 | 0 | – | 0 | 0 | > 10 |
| CN1[C@@H]2C[C@@H](OC(=O)[C@H](CO)c3ccccc3)C[C@H]1[C@@H]1O[C@@H]12 [SCOPOLAMINE HYDROBROMIDE] | – | – | – | – | – | 96.6 | 99.1 | 91.6 | 101 | 105 | – | – | – | – | – | 98 | 98.7 | 99.3 | 95.9 | 96.4 | 94.2 | 99 | 94.4 | 97.2 | 115 | > 10 | > 10 | > 10 | – | 0 | – | 0 | 0 | – |
| CN1CCN(CCCN2c3ccccc3Sc3ccc(C(F)(F)F)cc32)CC1 [trifluoperazine] | 92 | 86.1 | 84.3 | 82.6 | 83 | 103 | 99.3 | 102 | 101 | 72.2 | 106 | 89.7 | 98 | 92 | 56.6 | 97.4 | 100 | 101 | 98 | 85.5 | 95.5 | 103 | 105 | 88.7 | 76.2 | – | > 10 | > 10 | 4.6 | 1 | 3.5 | 0.4 | 2.2 | > 10 |
| O=C1NC(=O)c2c1c1c3ccccc3n3c1c1c2c2ccccc2n1C1CCC3O1 | 101 | 96.2 | 92.9 | 76.9 | 80.7 | 104 | 92.6 | 96.4 | 92 | 95.9 | 100 | 99.9 | 98.8 | 57.8 | 56.5 | 99.8 | 99.3 | 91.1 | 86.8 | 80 | 98.5 | 94.7 | 95 | 71.7 | 75 | > 10 | > 10 | – | 4 | 0 | 7.8 | 1.9 | 5.5 | > 10 |
